Target: T1, ProE (Pseudomonas aeruginosa, UniProt Q9HTQ9)
T1 construct: gene PA5295
Experiment: surface plasmon resonance
Type: binding

T1 sequence (Q9HTQ9 entry or part of it): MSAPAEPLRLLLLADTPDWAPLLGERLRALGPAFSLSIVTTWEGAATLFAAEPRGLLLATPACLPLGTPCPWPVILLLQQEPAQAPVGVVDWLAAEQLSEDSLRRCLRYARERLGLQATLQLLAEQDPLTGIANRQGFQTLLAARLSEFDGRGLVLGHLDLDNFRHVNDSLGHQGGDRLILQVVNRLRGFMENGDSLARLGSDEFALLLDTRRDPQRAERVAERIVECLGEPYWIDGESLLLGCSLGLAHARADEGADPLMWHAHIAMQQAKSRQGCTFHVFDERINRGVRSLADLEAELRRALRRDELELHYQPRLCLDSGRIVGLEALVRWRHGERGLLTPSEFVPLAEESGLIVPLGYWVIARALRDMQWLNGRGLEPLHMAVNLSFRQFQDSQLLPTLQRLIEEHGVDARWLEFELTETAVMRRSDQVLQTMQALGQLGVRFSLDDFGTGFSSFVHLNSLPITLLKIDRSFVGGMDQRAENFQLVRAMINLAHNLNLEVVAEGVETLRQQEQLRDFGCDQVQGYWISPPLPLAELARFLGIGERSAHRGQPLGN

With Nc1nc2c(ncn2[C@@H]2O[C@@H]3CO[P@](=O)(O)O[C@H]4[C@@H](O)[C@H](n5cnc6c(=O)[nH]c(N)nc65)O[C@@H]4CO[P@](=O)(O)O[C@H]3[C@H]2O)c(=O)[nH]1 [c-di-GMP] as the molecule, how does the Kd read?
The Kd was 2720 nM.

From publication PMC11852716, “c-di-GMP phosphodiesterase ProE interacts with quorum sensing protein PqsE to promote pyocyanin production in Pseudomonas aeruginosa” (mSphere, 2025)
